# Source: patent publication US10065990B2, “Cyclic peptide compound, and preparation method, pharmaceutical composition and use thereof” (HANGZHOU GUANYU BIO-MEDICAL CO., LTD, priority 2013, dated 2018)
# Read-outs that look alike come from different tables or passages of the source.
# Experiments:
# [1] = biological target: T1, HDAC7 (Homo sapiens, UniProt Q8WUI4); test: HDAC biochemical activity measurement (fluorescent substrate deacetylation);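 further: fluorogenic deacetylation assay using acetyl-lysine substrate at 20 µM, enzyme and compound incubated 30 min at 37 °C, then developer added, fluorescence read at 360/460 nm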; conditions: HDAC7; 37° C. 30 minutes
# T1 sequence (Q8WUI4 1-952): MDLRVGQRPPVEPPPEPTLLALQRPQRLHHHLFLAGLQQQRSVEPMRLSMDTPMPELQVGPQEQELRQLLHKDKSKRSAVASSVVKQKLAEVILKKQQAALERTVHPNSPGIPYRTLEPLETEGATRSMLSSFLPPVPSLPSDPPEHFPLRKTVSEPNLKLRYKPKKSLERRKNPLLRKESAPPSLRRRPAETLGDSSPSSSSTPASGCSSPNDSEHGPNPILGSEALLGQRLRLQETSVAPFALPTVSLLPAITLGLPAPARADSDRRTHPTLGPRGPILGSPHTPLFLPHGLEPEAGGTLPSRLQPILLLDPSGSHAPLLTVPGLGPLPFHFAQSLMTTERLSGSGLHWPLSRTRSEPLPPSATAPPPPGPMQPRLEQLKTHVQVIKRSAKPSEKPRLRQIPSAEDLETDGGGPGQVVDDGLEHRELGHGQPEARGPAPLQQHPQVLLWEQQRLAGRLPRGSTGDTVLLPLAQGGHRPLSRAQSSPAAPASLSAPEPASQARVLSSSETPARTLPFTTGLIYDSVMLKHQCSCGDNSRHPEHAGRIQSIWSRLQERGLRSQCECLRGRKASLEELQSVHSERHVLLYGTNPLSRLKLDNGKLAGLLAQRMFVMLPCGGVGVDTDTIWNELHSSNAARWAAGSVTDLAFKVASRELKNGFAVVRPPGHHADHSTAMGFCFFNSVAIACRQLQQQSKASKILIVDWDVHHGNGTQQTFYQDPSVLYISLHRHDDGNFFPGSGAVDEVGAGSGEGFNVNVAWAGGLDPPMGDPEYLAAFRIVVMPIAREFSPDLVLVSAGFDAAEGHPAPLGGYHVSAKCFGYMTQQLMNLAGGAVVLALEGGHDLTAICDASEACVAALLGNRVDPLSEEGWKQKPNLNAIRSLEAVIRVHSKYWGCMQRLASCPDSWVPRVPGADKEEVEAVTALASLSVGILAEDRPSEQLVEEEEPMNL
# [2] = test system: Bel-7402 (human hepatoma cells); test: MTT cancer cell growth inhibition; type: cell-based; conditions: MTT, 72 hours incubation, Bel-7402 cells, read-out: GI50 Bel-7402
# Procedure, shortened: (§1)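 Cells grown in DMEM or RPMI 1640 with 10% FBS were seeded at 1500/well and left overnight at 37° C., 5% CO2. Compounds at final 10^−5 to 10^−10 M were added in triplicate for 72 h. MTT was then added for 4 h, formazan dissolved in DMSO, and absorbance read at 570 nm to derive GI50.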
# [3] = test system: HCC827 (human non-small cell lung cancer cells); test: MTT cancer cell growth inhibition; type: cell-based; conditions: MTT, 72 hours incubation, HCC827 cells, read-out: GI50 HCC827
# Procedure, shortened: as §1
# [4] = test system: U937 (human leukemia cells); test: MTT cancer cell growth inhibition; type: cell-based; conditions: Homo sapiens, U-937, 72 h, MTT, 72 hours incubation, read-out: GI50 U93
# Procedure, shortened: as §1
# [5] = test system: Huh-7 (human hepatoma cells); test: MTT cancer cell growth inhibition; type: cell-based; conditions: Homo sapiens, Huh-7, 72 h, MTT, 72 hours incubation, Huh-7 cells; read-out: GI50 Huh-7
# Procedure, shortened: as §1
# [6] = test system: lncap (prostate cancer cells); test: MTT cancer cell growth inhibition; type: cell-based; conditions: MTT, 72 hours incubation, read-out: GI50 lnca
# Procedure, shortened: as §1
# [7] = test system: MOLT-4 (human acute lymphoblastic leukemia cells); test: MTT cancer cell growth inhibition; type: cell-based; conditions: MTT, 72 hours incubation, read-out: GI50 Mol
# Procedure, shortened: as §1
# [8] = test system: PANC-1 (Pac-1, human pancreatic cancer cells); test: MTT cancer cell growth inhibition; type: cell-based; conditions: MTT, 72 hours incubation, read-out: GI50 PAN
# Procedure, shortened: as §1
# [9] = test system: DU145 (human prostate cancer cells); test: MTT cancer cell growth inhibition; type: cell-based; conditions: Homo sapiens, DU-145, 72 h, MTT, 72 hours incubation, read-out: GI50 Du1
# Procedure, shortened: as §1
# [10] = test system: MDA-MB-231 (breast cancer cells); test: MTT cancer cell growth inhibition; type: cell-based
# Procedure, shortened: as §1
# [11] = test system: K562 (human leukemia cells); test: MTT cancer cell growth inhibition; type: cell-based; conditions: Homo sapiens, K562, 72 h, MTT, 72 hours incubation, K562 cells; read-out: GI50 K562
# Procedure, shortened: as §1
# [12] = test system: A549 (human lung cancer cells); test: MTT cancer cell growth inhibition; type: cell-based; conditions: Homo sapiens, A549, 72 h, MTT, 72 hours incubation, read-out: GI50 A54
# Procedure, shortened: as §1
# [13] = test system: N-87 (human gastric cancer cells); test: MTT cancer cell growth inhibition; type: cell-based; conditions: Homo sapiens, 72 h, MTT, 72 hours incubation, N-87 cells; read-out: GI50 N-87
# Procedure, shortened: as §1
# [14] = test system: SGC-7901 (human gastric cancer cells); test: MTT cancer cell growth inhibition; type: cell-based; conditions: MTT, 72 hours incubation, SGC-7901 cells, read-out: GI50 SGC-7901
# Procedure, shortened: as §1
# [15] = test system: HT1080 (human fibrosarcoma cells); test: MTT cancer cell growth inhibition; type: cell-based; conditions: MTT, 72 hours incubation, read-out: GI50 HT1
# Procedure, shortened: as §1
# [16] = test system: KBM5-T315I (human chronic myelogenous leukemia); test: MTT cancer cell growth inhibition; type: cell-based; conditions: Homo sapiens, 72 h, MTT, 72 hours incubation, KBM5-T315I cells; read-out: GI50 KBM5-T315I
# Procedure, shortened: as §1
# [17] = test system: MCF-7 (human breast cancer cells); test: MTT cancer cell growth inhibition; type: cell-based; conditions: Homo sapiens, MCF7, 72 h, 72 hours incubation, read-out: GI50 MCF
# Procedure, shortened: as §1
# [18] = test system: H1975 (non-small cell lung adenocarcinoma); test: MTT cancer cell growth inhibition; type: cell-based; conditions: MTT, 72 hours incubation, H1975 cells, read-out: GI50 H1975
# Procedure, shortened: as §1
# [19] = test system: KBM-5 (human chronic myelogenous leukemia); test: MTT cancer cell growth inhibition; type: cell-based; conditions: MTT, 72 hours incubation, KBM-5 cells, read-out: GI50 KBM-5
# Procedure, shortened: as §1
# [20] = test system: Hela (human cervical cancer cells); test: MTT cancer cell growth inhibition; type: cell-based; conditions: MTT, 72 hours incubation, read-out: GI50 Hela
# Procedure, shortened: as §1
# [21] = test system: BGC-823 (human gastric cancer cells); test: MTT cancer cell growth inhibition; type: cell-based; conditions: Homo sapiens, BGC-823, 72 h, MTT, 72 hours incubation, read-out: GI50 BG
# Procedure, shortened: as §1
# [22] = Homo sapiens, MDA-MB-231, 72 h, read-out: GI50 MDA-MB-231, MTT, 72 hours incubation, MDA-MB-231 cells
# [23] = Homo sapiens, LNCaP, 72 h, lncap cells
# [24] = Homo sapiens, MOLT-4, 72 h, MOLT-4 cells
# [25] = Homo sapiens, PANC-1, 72 h, PANC-1 cells
# [26] = Homo sapiens, HT-1080, 72 h, HT1080 cells
# [27] = Homo sapiens, HeLa, 72 h, Hela cells
Compound,IC50 HDAC7 [1],GI50 ([4]; U937 cells) [nM],GI50 [5] [nM],GI50 ([9]; DU145 cells) [nM],GI50 [11] [nM],GI50 ([12]; A549 cells) [nM],GI50 [13] [nM],GI50 [16] [nM],GI50 ([17]; MCF-7 cells) [nM],GI50 ([21]; BGC-823 cells) [nM],"GI50 ([2]; Homo sapiens, Bel-7402, 72 h) [nM]","GI50 ([3]; Homo sapiens, HCC827, 72 h) [nM]",GI50 [4] [nM],"GI50 ([6]; Homo sapiens, LNCaP, 72 h) [nM]","GI50 ([7]; Homo sapiens, MOLT-4, 72 h) [nM]","GI50 ([8]; Homo sapiens, PANC-1, 72 h) [nM]","GI50 [10, 22] [nM]","GI50 ([14]; Homo sapiens, SGC-7901, 72 h) [nM]","GI50 ([18]; Homo sapiens, NCI-H1975, 72 h) [nM]","GI50 ([19]; Homo sapiens, KBM5, 72 h) [nM]",also measured
C/C=C1\NC(=O)c2nc(ccc2SC)CNC(=O)C[C@@H](/C=C/CCSC(C)=O)OC(=O)[C@H](Cc2ccc(O)cc2)NC1=O [Compound 201],no activity,40,90,30,35,30,32,35,40,50,69,11,,,,,38,51,73,29,"GI50 [6, 23]: 70 nM; GI50 [7, 24]: 20 nM; GI50 [8, 25]: 60 nM; GI50 [15, 26]: 60 nM; GI50 [20, 27]: 30 nM"
C/C=C1\NC(=O)c2nc(ccc2F)CNC(=O)C[C@@H](/C=C/CCS)OC(=O)[C@H](C)NC1=O [Compound 112],no activity,,35,,55,,73,31,,,23,73,60,70,90,80,58,41,16,21,"GI50 [9]: 60 nM; GI50 [12]: 60 nM; GI50 ([15]; Homo sapiens, HT-1080, 72 h): 90 nM; GI50 [17]: 60 nM; GI50 ([20]; Homo sapiens, HeLa, 72 h): 70 nM; GI50 [21]: 80 nM"
C/C=C1\NC(=O)c2nc(ccc2F)CNC(=O)C[C@@H](/C=C/CCSC(=O)CCCC)OC(=O)[C@H](C(C)C)NC1=O [Example 39],no activity,,22,,26,,50,67,,,83,83,30,20,20,80,22,41,35,72,"GI50 [9]: 20 nM; GI50 [12]: 40 nM; GI50 ([15]; Homo sapiens, HT-1080, 72 h): 80 nM; GI50 [17]: 60 nM; GI50 ([20]; Homo sapiens, HeLa, 72 h): 70 nM; GI50 [21]: 50 nM"

# Now from value to compound, other results behind:
IC50 HDAC7 [1],GI50 ([4]; U937 cells) [nM],GI50 [5] [nM],GI50 ([9]; DU145 cells) [nM],GI50 [11] [nM],GI50 ([12]; A549 cells) [nM],GI50 [13] [nM],GI50 [16] [nM],GI50 ([17]; MCF-7 cells) [nM],GI50 ([21]; BGC-823 cells) [nM],"GI50 ([2]; Homo sapiens, Bel-7402, 72 h) [nM]","GI50 ([3]; Homo sapiens, HCC827, 72 h) [nM]",GI50 [4] [nM],"GI50 ([6]; Homo sapiens, LNCaP, 72 h) [nM]","GI50 ([7]; Homo sapiens, MOLT-4, 72 h) [nM]","GI50 ([8]; Homo sapiens, PANC-1, 72 h) [nM]","GI50 [10, 22] [nM]","GI50 ([14]; Homo sapiens, SGC-7901, 72 h) [nM]","GI50 ([18]; Homo sapiens, NCI-H1975, 72 h) [nM]","GI50 ([19]; Homo sapiens, KBM5, 72 h) [nM]",Compound,also measured
no activity,20,29,40,45,30,42,33,30,40,,,,,,,,,,,C/C=C1\NC(=O)c2ccc(SC)c(n2)CNC(=O)C[C@@H](/C=C/CCSC(C)=O)OC(=O)[C@H](C(C)C)NC1=O [Compound 167],"GI50 [2]: 75 nM; GI50 [3]: 28 nM; GI50 ([6]; lncap cells): 60 nM; GI50 ([7]; MOLT-4 cells): 20 nM; GI50 ([8]; PANC-1 cells): 70 nM; GI50 ([10]; read-out: GI50 MDA-MB-231, MTT, 72 hours incubation, MDA-MB-231 cells): 91 nM; GI50 [14]: 97 nM; GI50 ([15]; HT1080 cells): 100 nM; GI50 [18]: 43 nM; GI50 [19]: 14 nM; GI50 ([20]; Hela cells): 40 nM"
no activity,,62,,27,,38,29,,,93,33,2290,700,300,550,92,29,42,59,C/C=C1\NC(=O)c2cccc(n2)CNC(=O)C[C@@H](/C=C/CCSC(C)=O)OC(=O)[C@@H](C)NC1=O [Example 25],"GI50 [9]: 1300 nM; GI50 [12]: 15400 nM; GI50 ([15]; Homo sapiens, HT-1080, 72 h): 39200 nM; GI50 [17]: 53600 nM; GI50 ([20]; Homo sapiens, HeLa, 72 h): 67700 nM; GI50 [21]: 3300 nM"
no activity,40,24,60,19,40,31,28,70,70,21,55,,,,,85,71,73,31,C=C1NC(=O)c2cc(SC)cc(n2)CNC(=O)C[C@@H](/C=C/CCSC(C)=O)OC(=O)[C@H](C)NC1=O [Compound 211],"GI50 [6, 23]: 30 nM; GI50 [7, 24]: 30 nM; GI50 [8, 25]: 70 nM; GI50 [15, 26]: 40 nM; GI50 [20, 27]: 60 nM"
